Measurements published in BindingDB's records for doi:10.1021/jm300317k (University of Manchester, 2012).

Molecular target: Glucose-6-phosphate 1-dehydrogenase (Homo sapiens, UniProt P11413)
Test: Inhibition of human recombinant N-terminal His tagged G6PD expressed in Escherichia coli JM109 (DE3) cells assessed as production of NADPH after 30 mins by Amplite fluorimetric assay

Glucose-6-phosphate 1-dehydrogenase, sequence (P11413 whole entry): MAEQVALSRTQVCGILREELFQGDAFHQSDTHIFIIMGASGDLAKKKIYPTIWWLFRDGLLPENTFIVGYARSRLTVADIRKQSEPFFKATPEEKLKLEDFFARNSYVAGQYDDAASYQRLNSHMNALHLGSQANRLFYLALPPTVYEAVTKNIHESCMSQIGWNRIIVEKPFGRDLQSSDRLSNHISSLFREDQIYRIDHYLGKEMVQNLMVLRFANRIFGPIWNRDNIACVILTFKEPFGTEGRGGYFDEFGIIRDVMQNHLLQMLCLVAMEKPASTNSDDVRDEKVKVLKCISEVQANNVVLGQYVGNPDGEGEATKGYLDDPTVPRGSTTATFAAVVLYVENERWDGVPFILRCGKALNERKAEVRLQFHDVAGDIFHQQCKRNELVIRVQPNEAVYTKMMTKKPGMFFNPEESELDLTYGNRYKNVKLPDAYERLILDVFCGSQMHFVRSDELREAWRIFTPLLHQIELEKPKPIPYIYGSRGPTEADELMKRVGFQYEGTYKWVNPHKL

## CC(N=O)[C@H]1CC[C@H]2[C@@H]3CC[C@H]4C[C@@H](O)CC[C@]4(C)[C@H]3CC[C@]12C (some centres not stated)
  IC50: > 200 µM

## C[C@]12CC[C@H](O)C[C@@H]1CC[C@@H]1[C@@H]2CC[C@]2(C)C(N=O)CC[C@@H]12 (some centres not stated)
  IC50: > 200 µM
